Assay results taken from the NIST ThermoML archive (doi:10.1021/je700546r).
Values joined by “and” are separate entries in the source; they are usually repeats but may differ in a detail not shown here. Equal entries are not always repeated.

Assay: molar heat capacity at saturation pressure
Conditions: Crystal 3, Small (less than 1 g) adiabatic calorimetry

ON=C1CCCCC1 [cyclohexanone oxime]
Conditions | molar heat capacity
4.9 K | 0.339 J/K/mol
5.136 K | 0.3967 J/K/mol
5.378 K | 0.4649 J/K/mol
5.624 K | 0.5419 J/K/mol
5.878 K | 0.6278 J/K/mol
6.165 K | 0.7333 J/K/mol
6.485 K | 0.8621 J/K/mol
6.812 K | 1.006 J/K/mol
7.147 K | 1.167 J/K/mol
7.488 K | 1.338 J/K/mol
7.836 K | 1.53 J/K/mol
8.187 K | 1.735 J/K/mol
8.542 K | 1.956 J/K/mol
8.902 K | 2.19 J/K/mol
9.268 K | 2.438 J/K/mol
9.636 K | 2.708 J/K/mol
10 K | 2.981 J/K/mol
10.48 K | 3.361 J/K/mol
11.06 K | 3.83 J/K/mol
11.64 K | 4.325 J/K/mol
12.23 K | 4.854 J/K/mol
12.83 K | 5.408 J/K/mol
13.43 K | 5.992 J/K/mol
14.03 K | 6.572 J/K/mol
14.64 K | 7.153 J/K/mol
15.26 K | 7.796 J/K/mol
15.98 K | 8.601 J/K/mol
16.81 K | 9.497 J/K/mol
17.65 K | 10.37 J/K/mol
18.49 K | 11.28 J/K/mol
19.34 K | 12.18 J/K/mol
20.19 K | 13.08 J/K/mol
21.32 K | 14.35 J/K/mol
22.74 K | 15.89 J/K/mol
24.16 K | 17.46 J/K/mol
25.59 K | 19 J/K/mol
27.02 K | 20.5 J/K/mol
28.49 K | 22 J/K/mol
30.12 K | 23.63 J/K/mol
31.73 K | 25.22 J/K/mol
33.5 K | 26.88 J/K/mol
35.28 K | 28.48 J/K/mol
37.06 K | 30.01 J/K/mol
38.84 K | 31.47 J/K/mol
40.63 K | 32.89 J/K/mol
42.51 K | 34.38 J/K/mol
44.49 K | 35.9 J/K/mol
46.48 K | 37.34 J/K/mol
48.47 K | 38.76 J/K/mol
50.46 K | 40.11 J/K/mol
52.45 K | 41.42 J/K/mol
54.45 K | 42.64 J/K/mol
56.45 K | 43.84 J/K/mol
58.46 K | 45.02 J/K/mol
60.47 K | 46.16 J/K/mol
62.48 K | 47.28 J/K/mol
64.5 K | 48.37 J/K/mol
66.51 K | 49.44 J/K/mol
68.52 K | 50.51 J/K/mol
70.54 K | 51.55 J/K/mol
72.56 K | 52.59 J/K/mol
74.59 K | 53.59 J/K/mol
76.61 K | 54.6 J/K/mol
78.65 K | 55.6 J/K/mol
79.94 K | 56.26 J/K/mol
80.68 K | 56.58 J/K/mol
81.67 K | 57.04 J/K/mol
82.2 K | 57.24 J/K/mol
82.71 K | 57.54 J/K/mol
83.39 K | 57.84 J/K/mol
84.24 K | 58.2 J/K/mol
84.75 K | 58.47 J/K/mol
85.1 K | 58.59 J/K/mol
86.15 K | 59.05 J/K/mol
86.83 K | 59.4 J/K/mol
88.07 K | 59.96 J/K/mol
88.55 K | 60.2 J/K/mol
90 K | 60.85 J/K/mol
90.28 K | 61.01 J/K/mol
91.95 K | 61.75 J/K/mol
92.01 K | 61.8 J/K/mol
93.75 K | 62.62 J/K/mol
93.89 K | 62.67 J/K/mol
95.49 K | 63.42 J/K/mol
95.85 K | 63.56 J/K/mol
97.23 K | 64.21 J/K/mol
97.81 K | 64.45 J/K/mol
98.97 K | 65.03 J/K/mol
99.77 K | 65.37 J/K/mol
100.72 K | 65.83 J/K/mol
101.74 K | 66.25 J/K/mol
102.52 K | 66.6 J/K/mol
103.72 K | 67.14 J/K/mol
104.37 K | 67.44 J/K/mol
105.7 K | 68.04 J/K/mol
106.23 K | 68.29 J/K/mol
107.69 K | 68.92 J/K/mol
108.09 K | 69.08 J/K/mol
109.68 K | 69.81 J/K/mol
109.95 K | 69.92 J/K/mol
111.68 K | 70.69 J/K/mol
111.81 K | 70.76 J/K/mol
113.68 K | 71.57 J/K/mol and 71.56 J/K/mol
115.55 K | 72.37 J/K/mol
115.69 K | 72.45 J/K/mol
117.41 K | 73.2 J/K/mol
117.7 K | 73.35 J/K/mol
119.29 K | 74.03 J/K/mol
119.71 K | 74.22 J/K/mol
121.16 K | 74.85 J/K/mol
121.72 K | 75.08 J/K/mol
123.03 K | 75.63 J/K/mol
123.73 K | 75.98 J/K/mol
124.91 K | 76.46 J/K/mol
125.75 K | 76.86 J/K/mol
126.79 K | 77.29 J/K/mol
127.76 K | 77.72 J/K/mol
128.67 K | 78.11 J/K/mol
129.79 K | 78.6 J/K/mol
130.55 K | 78.91 J/K/mol
131.81 K | 79.49 J/K/mol
132.43 K | 79.75 J/K/mol
133.83 K | 80.38 J/K/mol
134.31 K | 80.58 J/K/mol
135.86 K | 81.28 J/K/mol
136.2 K | 81.42 J/K/mol
137.88 K | 82.16 J/K/mol
138.09 K | 82.25 J/K/mol
139.9 K | 83.05 J/K/mol
139.98 K | 83.08 J/K/mol
141.87 K | 83.93 J/K/mol
141.92 K | 83.95 J/K/mol
143.76 K | 84.77 J/K/mol
143.95 K | 84.85 J/K/mol
145.65 K | 85.62 J/K/mol
145.97 K | 85.73 J/K/mol
147.54 K | 86.49 J/K/mol
148 K | 86.67 J/K/mol
149.44 K | 87.35 J/K/mol
150.03 K | 87.59 J/K/mol
151.34 K | 88.17 J/K/mol
152.05 K | 88.52 J/K/mol
153.24 K | 89.05 J/K/mol
154.08 K | 89.42 J/K/mol
155.13 K | 89.89 J/K/mol
156.1 K | 90.34 J/K/mol
157.03 K | 90.77 J/K/mol
158.12 K | 91.27 J/K/mol
158.93 K | 91.65 J/K/mol
160.13 K | 92.24 J/K/mol
160.83 K | 92.53 J/K/mol
162.15 K | 93.18 J/K/mol
162.73 K | 93.45 J/K/mol
164.16 K | 94.14 J/K/mol
164.63 K | 94.35 J/K/mol
166.17 K | 95.08 J/K/mol
166.54 K | 95.25 J/K/mol
168.18 K | 96.07 J/K/mol
168.44 K | 96.2 J/K/mol
170.18 K | 97.05 J/K/mol
170.35 K | 97.13 J/K/mol
172.19 K | 98.05 J/K/mol
172.26 K | 98.07 J/K/mol
174.17 K | 99.06 J/K/mol
174.19 K | 99.05 J/K/mol
176.08 K | 100.02 J/K/mol
176.19 K | 100.08 J/K/mol
177.99 K | 101.03 J/K/mol
178.2 K | 101.13 J/K/mol
179.9 K | 102.04 J/K/mol
180.2 K | 102.17 J/K/mol
181.81 K | 103.07 J/K/mol
182.19 K | 103.23 J/K/mol
183.72 K | 104.11 J/K/mol
184.18 K | 104.31 J/K/mol
185.64 K | 105.14 J/K/mol
186.16 K | 105.44 J/K/mol
187.55 K | 106.25 J/K/mol
188.14 K | 106.57 J/K/mol
189.46 K | 107.37 J/K/mol
190.12 K | 107.71 J/K/mol
191.37 K | 108.48 J/K/mol
192.1 K | 108.92 J/K/mol
193.29 K | 109.62 J/K/mol
194.08 K | 110.15 J/K/mol
195.2 K | 110.84 J/K/mol
196.05 K | 111.36 J/K/mol
197.13 K | 112.05 J/K/mol
198.02 K | 112.6 J/K/mol
199.05 K | 113.28 J/K/mol
199.97 K | 113.87 J/K/mol
200.97 K | 114.62 J/K/mol
202 K | 115.31 J/K/mol
202.89 K | 116 J/K/mol
203.92 K | 116.79 J/K/mol
204.81 K | 117.51 J/K/mol
205.74 K | 118.31 J/K/mol
206.72 K | 119.13 J/K/mol
207.56 K | 119.91 J/K/mol
208.63 K | 120.93 J/K/mol
209.36 K | 121.66 J/K/mol
210.55 K | 122.71 J/K/mol
211.17 K | 123.38 J/K/mol
212.46 K | 124.68 J/K/mol
212.97 K | 125.27 J/K/mol
214.38 K | 126.63 J/K/mol
214.76 K | 127.11 J/K/mol
216.3 K | 128.63 J/K/mol
216.54 K | 128.94 J/K/mol
217 K | 129.41 J/K/mol
217.73 K | 130.26 J/K/mol
218.21 K | 130.69 J/K/mol
218.32 K | 130.87 J/K/mol
218.98 K | 131.5 J/K/mol
219.5 K | 132.12 J/K/mol
220.09 K | 132.7 J/K/mol
220.14 K | 132.72 J/K/mol
220.87 K | 133.52 J/K/mol
221.26 K | 133.99 J/K/mol
222.06 K | 134.69 J/K/mol
222.75 K | 135.43 J/K/mol
223.02 K | 135.78 J/K/mol
